Results as given in US20250041429A1, “COMPOUND HAVING BTK PROTEIN DEGRADATION ACTIVITY, AND MEDICAL USES THEREOF” (UBIX THERAPEUTICS, INC., priority 2021, published 2025).

Biological target: T1, BTK protein (Homo sapiens, UniProt Q06187)
T1 construct: endogenous in cells; host or cells: TMD-8 cells
Experiment: Measurement of BTK protein degradation ability in TMD-8 cells (Western blotting)
Assay type: cell-based
Settings: harvested after 24 hours; for BTK degradation (%) 1 nM: compound 1 nM; for BTK degradation (%) 10 nM: compound 10 nM; for BTK degradation (%) 100 nM: compound 100 nM
Procedure, shortened: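 TMD-8 cells (1×10^6/mL) were treated for 24 h with compound at 0.1, 1, 10 μM or 0.0001–0.1 μM, with DMSO as vehicle control. RIPA lysates were normalized by BCA assay. BTK was detected by Western blot with anti-BTK, using GAPDH or β-actin as loading controls, and imaged on LI-COR Odyssey.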

T1 sequence (Q06187 whole entry): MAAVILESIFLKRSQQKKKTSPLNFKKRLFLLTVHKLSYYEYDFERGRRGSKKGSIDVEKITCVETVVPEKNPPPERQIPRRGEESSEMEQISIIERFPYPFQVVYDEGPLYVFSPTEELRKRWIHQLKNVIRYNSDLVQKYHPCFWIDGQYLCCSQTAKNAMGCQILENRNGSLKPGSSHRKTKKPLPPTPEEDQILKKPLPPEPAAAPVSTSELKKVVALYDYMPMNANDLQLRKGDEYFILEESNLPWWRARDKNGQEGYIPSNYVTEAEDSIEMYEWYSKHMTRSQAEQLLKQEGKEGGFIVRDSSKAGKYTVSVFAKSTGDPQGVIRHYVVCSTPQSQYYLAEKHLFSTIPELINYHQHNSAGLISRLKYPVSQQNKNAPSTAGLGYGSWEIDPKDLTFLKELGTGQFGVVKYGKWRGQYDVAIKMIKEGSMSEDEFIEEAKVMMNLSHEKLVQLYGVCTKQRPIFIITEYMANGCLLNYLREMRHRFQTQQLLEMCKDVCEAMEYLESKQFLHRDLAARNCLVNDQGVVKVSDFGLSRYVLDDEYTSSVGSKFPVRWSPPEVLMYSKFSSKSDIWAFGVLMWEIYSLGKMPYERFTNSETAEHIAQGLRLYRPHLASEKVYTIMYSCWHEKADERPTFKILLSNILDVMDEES

SMILES	BTK degradation (%) 1 nM [%]	BTK degradation (%) 10 nM [%]	BTK degradation (%) 100 nM [%]
Cc1cc(-c2ccnc(Nc3ccc(N4CCN(CC5CCN(c6cccc(N7CCC(=O)NC7=O)c6)CC5)CC4)cc3)n2)ccc1CNC(=O)N1CC(OC(C)C)C1 [Example 65, N-(4-(2-((4-(4-((1-(3-(2,4-dioxotetrahydropyrimidin-1 (2H)-yl)phenyl)piperidin-4-yl)methyl)piperazin-1-yl)phenyl)amino)pyrimidin-4-yl)-2-methylbenzyl)-3-isopropoxyazetidine-1-carboxamide]	32.5	92.0	99.0
Cc1cc(-c2ccnc(Nc3ccc(N4CCN(CC5CCN(c6ccc(N7CCC(=O)NC7=O)cc6)CC5)CC4)cc3)n2)ccc1CNC(=O)N1CC(OC(C)C)C1 [Example 66, N-(4-(2-((4-(4-((1-(4-(2,4-dioxotetrahydropyrimidin-1 (2H)-yl)phenyl)piperidin-4-yl)methyl)piperazin-1-yl)phenyl)amino)pyrimidin-4-yl)-2-methylbenzyl)-3-isopropoxyazetidine-1-carboxamide]	28.0	91.5	98.5
Cc1cc(-c2ccnc(Nc3ccc(CN4CCN(CC5CCN(c6cccc(N7CCC(=O)NC7=O)c6)CC5)CC4)cc3)n2)ccc1CNC(=O)N1CC(OC(C)C)C1 [Example 67, N-(4-(2-((4-((4-((1-(3-(2,4-dioxotetrahydropyrimidin-1 (2H)-yl)phenyl)piperidin-4-yl)methyl)piperazin-1-yl)methyl)phenyl)amino)pyrimidin-4-yl)-2-methylbenzyl)-3-isopropoxyazetidine-1-carboxamide]	13.5	77.0	98.0
Cc1cc(-c2ccnc(Nc3ccc(CN4CCN(CC5CCN(c6ccc(N7CCC(=O)NC7=O)cc6)CC5)CC4)cc3)n2)ccc1CNC(=O)N1CC(OC(C)C)C1 [Example 68, N-(4-(2-((4-((4-((1-(4-(2,4-dioxotetrahydropyrimidin-1 (2H)-yl)phenyl)piperidin-4-yl)methyl)piperazin-1-yl)methyl)phenyl)amino)pyrimidin-4-yl)-2-methylbenzyl)-3-isopropoxyazetidine-1-carboxamide]	22.5	88.0	99.0
Cc1cc(-c2ccnc(Nc3ccc(CN4CCN(CC5CCN(c6cccc(NC7CCC(=O)NC7=O)c6)CC5)CC4)cc3)n2)ccc1CNC(=O)c1cn(C(C)(C)C)nn1 (stereo not drawn) [Example 69, 1-(tert-butyl)-N-(4-(2-((4-((4-((1-(3-((2,6-dioxopiperidin-3-yl)amino)phenyl)piperidin-4-yl)methyl)piperazin-1-yl)methyl)phenyl)amino)pyrimidin-4-yl)-2-methylbenzyl)-1H-1,2,3-triazole-4-carboxamide]	61.5	95.0	99.5
Cc1cc(-c2ccnc(Nc3ccc(N4CCN(CC5CCN(c6cccc(N7CCC(=O)NC7=O)c6)CC5)CC4)cc3)n2)ccc1CNC(=O)c1cn(C(C)(C)C)nn1 [Example 70, 1-(tert-butyl)-N-(4-(2-((4-(4-((1-(3-(2,4-dioxotetrahydropyrimidin-1 (2H)-yl)phenyl)piperidin-4-yl)methyl)piperazin-1-yl)phenyl)amino)pyrimidin-4-yl)-2-methylbenzyl)-1H-1,2,3-triazole-4-carboxamide]	67.0	97.5	99.5
Cc1cc(-c2ccnc(Nc3ccc(N4CCN(CC5CCN(c6ccc(N7CCC(=O)NC7=O)cc6)CC5)CC4)cc3)n2)ccc1CNC(=O)c1cn(C(C)(C)C)nn1 [Example 71, 1-(tert-butyl)-N-(4-(2-((4-(4-((1-(4-(2,4-dioxotetrahydropyrimidin-1 (2H)-yl)phenyl)piperidin-4-yl)methyl)piperazin-1-yl)phenyl)amino)pyrimidin-4-yl)-2-methylbenzyl)-1H-1,2,3-triazole-4-carboxamide]	80.5	98.0	99.5
Cc1cc(-c2ccnc(Nc3ccc(N4CCN(CC5CCN(c6ccc(NC7CCC(=O)NC7=O)cc6F)CC5)CC4)cc3)n2)ccc1CNC(=O)c1cn(C(C)(C)C)nn1 (stereo not drawn) [Example 72, 1-(tert-butyl)-N-(4-(2-((4-(4-((1-(4-((2,6-dioxopiperidin-3-yl)amino)-2-fluorophenyl)piperidin-4-yl)methyl)piperazin-1-yl)phenyl)amino)pyrimidin-4-yl)-2-methylbenzyl)-1H-1,2,3-triazole-4-carboxamide]	62.5	95.5	99.0
Cc1cc(-c2ccnc(Nc3ccc(N4CCN(CC5CCN(c6ccc(N7CCC(=O)NC7=O)cc6F)CC5)CC4)cc3)n2)ccc1CNC(=O)c1cn(C(C)(C)C)nn1 [Example 73]	43.0	91.5	97.0
Cc1cc(-c2ccnc(Nc3ccc(CN4CCN(CC5CCN(c6cccc(N7CCC(=O)NC7=O)c6)CC5)CC4)cc3)n2)ccc1CNC(=O)c1cn(C(C)(C)C)nn1 [Example 74, 1-(tert-butyl)-N-(4-(2-((4-((4-((1-(3-(2,4-dioxotetrahydropyrimidin-1 (2H)-yl)phenyl)piperidin-4-yl)methyl)piperazin-1-yl)methyl)phenyl)amino)pyrimidin-4-yl)-2-methylbenzyl)-1H-1,2,3-triazole-4-carboxamide]	43.0	91.5	96.5
Cc1cc(-c2ccnc(Nc3ccc(CN4CCN(CC5CCN(c6ccc(N7CCC(=O)NC7=O)cc6)CC5)CC4)cc3)n2)ccc1CNC(=O)c1cn(C(C)(C)C)nn1 [Example 75, 1-(tert-butyl)-N-(4-(2-((4-((4-((1-(4-(2,4-dioxotetrahydropyrimidin-1 (2H)-yl)phenyl)piperidin-4-yl)methyl)piperazin-1-yl)methyl)phenyl)amino)pyrimidin-4-yl)-2-methylbenzyl)-1H-1,2,3-triazole-4-carboxamide]	14.0	87.0	98.0
Cc1cc(-c2ccnc(Nc3ccc(N4CCN(CC5CCN(c6cccc(N7CCC(=O)NC7=O)c6)CC5)CC4)nc3)n2)ccc1CNC(=O)c1cn(C(C)(C)C)nn1 [Example 76]	55.0	96.5	100.0
Cc1cc(-c2ccnc(Nc3ccc(N4CCN(CC5CCN(c6ccc(N7CCC(=O)NC7=O)cc6)CC5)CC4)nc3)n2)ccc1CNC(=O)c1cn(C(C)(C)C)nn1 [Example 77]	57.5	96.0	99.5
Cc1cc(-c2ccnc(Nc3ccc(C4CCN(CC5CCN(c6cccc(N7CCC(=O)NC7=O)c6)CC5)CC4)cc3)n2)ccc1CNC(=O)c1cn(C(C)(C)C)nn1 [Example 78, 1-(tert-butyl)-N-(4-(2-((4-(1-((1-(3-(2,4-dioxotetrahydropyrimidin-1 (2H)-yl)phenyl)piperidin-4-yl)methyl)piperidin-4-yl)phenyl)amino)pyrimidin-4-yl)-2-methylbenzyl)-1H-1,2,3-triazole-4-carboxamide]	43.5	93.5	99.0
Cc1cc(-c2ccnc(Nc3ccc(C4CCN(CC5CCN(c6ccc(N7CCC(=O)NC7=O)cc6)CC5)CC4)cc3)n2)ccc1CNC(=O)c1cn(C(C)(C)C)nn1 [Example 79, 1-(tert-butyl)-N-(4-(2-((4-(1-((1-(4-(2,4-dioxotetrahydropyrimidin-1 (2H)-yl)phenyl)piperidin-4-yl)methyl)piperidin-4-yl)phenyl)amino)pyrimidin-4-yl)-2-methylbenzyl)-1H-1,2,3-triazole-4-carboxamide]	26.0	92.5	98.0
Cc1cc(-c2ccnc(Nc3ccc(N4CCN(CC5CCN(c6cccc(N7CCC(=O)NC7=O)c6)CC5)CC4)cc3)n2)ccc1CNC(=O)c1cnn(C(C)C)c1 [Example 80, N-(4-(2-((4-(4-((1-(3-(2,4-dioxotetrahydropyrimidin-1 (2H)-yl)phenyl)piperidin-4-yl)methyl)piperazin-1-yl)phenyl)amino)pyrimidin-4-yl)-2-methylbenzyl)-1-isopropyl-1H-pyrazole-4-carboxamide]	73.5	98.0	99.5
Cc1cc(-c2ccnc(Nc3ccc(N4CCN(CC5CCN(c6cccc(N7CCC(=O)NC7=O)c6)CC5)CC4)cc3)n2)ccc1CNC(=O)c1cnn(C(C)(C)C)c1 [Example 81, 1-(tert-butyl)-N-(4-(2-((4-(4-((1-(3-(2,4-dioxotetrahydropyrimidin-1 (2H)-yl)phenyl)piperidin-4-yl)methyl)piperazin-1-yl)phenyl)amino)pyrimidin-4-yl)-2-methylbenzyl)-1H-pyrazole-4-carboxamide]	65.0	97.0	99.5
Cc1cc(-c2ccnc(Nc3ccc(N4CCN(CC5CCN(c6cccc(N7CCC(=O)NC7=O)c6)CC5)CC4)nc3)n2)ccc1CNC(=O)c1cnn(C(C)C)c1 [Example 82, N-(4-(2-((6-(4-((1-(3-(2,4-dioxotetrahydropyrimidin-1 (2H)-yl)phenyl)piperidin-4-yl)methyl)piperazin-1-yl)pyridin-3-yl)amino)pyrimidin-4-yl)-2-methylbenzyl)-1-isopropyl-1H-pyrazole-4-carboxamide]	32.0	87.5	99.5
